Assay results as given in ChEMBL document CHEMBL1145207, “Discovery of novel quinoline-based estrogen receptor ligands using peptide interaction profiling” (J Med Chem, 2005).

Molecular target: T1, Estrogen receptor (Homo sapiens, UniProt P03372)
T1 sequence (P03372 whole entry): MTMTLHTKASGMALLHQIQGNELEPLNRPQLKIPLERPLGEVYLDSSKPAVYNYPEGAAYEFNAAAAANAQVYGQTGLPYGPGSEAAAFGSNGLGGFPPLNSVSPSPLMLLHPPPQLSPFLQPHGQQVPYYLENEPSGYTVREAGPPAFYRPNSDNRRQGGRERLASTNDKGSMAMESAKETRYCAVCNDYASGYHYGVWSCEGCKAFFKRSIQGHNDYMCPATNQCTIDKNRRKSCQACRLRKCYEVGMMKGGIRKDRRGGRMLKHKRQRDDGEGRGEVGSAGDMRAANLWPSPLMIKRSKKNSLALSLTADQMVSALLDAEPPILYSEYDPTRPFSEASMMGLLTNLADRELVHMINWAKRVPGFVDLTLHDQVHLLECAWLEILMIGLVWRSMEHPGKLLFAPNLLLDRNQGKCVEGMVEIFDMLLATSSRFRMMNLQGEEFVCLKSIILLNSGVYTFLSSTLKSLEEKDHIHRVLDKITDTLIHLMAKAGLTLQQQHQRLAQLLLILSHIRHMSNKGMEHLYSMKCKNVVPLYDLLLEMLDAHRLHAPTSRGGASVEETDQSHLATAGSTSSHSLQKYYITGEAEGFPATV
Conditions: not given

SMILES	Ki [nM]
CCc1nc2cc(O)ccc2c(Oc2ccc(/C=C/C(=O)O)cc2)c1-c1cccc(C(F)(F)F)c1	100
CCc1nc2cc(O)ccc2c(Oc2ccc(/C=C/C(N)=O)cc2)c1-c1ccccc1	15.8
CCc1nc2cc(O)ccc2c(Oc2cccc(/C=C/C(=O)O)c2)c1-c1ccccc1	1580
CCc1nc2cc(O)ccc2c(Oc2ccc(OCCN(C)C)cc2)c1-c1ccccc1	7.94

Next, values leading:

Ki [nM]	SMILES
10	CCc1nc2cc(O)ccc2c(Oc2ccc(/C=C/C(=O)N(C)C)cc2)c1-c1ccccc1
3160	O=C(O)/C=C/c1ccc(Oc2c(-c3ccccc3)c(-c3ccccc3)nc3cc(O)ccc23)cc1
10	CCc1nc2cc(O)ccc2c(Oc2ccc(/C=C/C(=O)NC(C)C)cc2)c1-c1ccccc1
25.1	CCc1nc2cc(O)ccc2c(Oc2ccc(/C=C/C(=O)N3CCCCC3)cc2)c1-c1ccccc1

Molecular target: Estrogen receptor (Homo sapiens, UniProt Q92731+P03372)
Conditions: ishikawa

SMILES	Log IC50
CCc1nc2cc(O)ccc2c(Oc2ccc(/C=C/C(=O)O)cc2)c1-c1cccc(C(F)(F)F)c1	-8.1
CCc1nc2cc(O)ccc2c(Oc2ccc(/C=C/C(N)=O)cc2)c1-c1ccccc1	-7.1
CCc1nc2cc(O)ccc2c(Oc2ccc(OCCN(C)C)cc2)c1-c1ccccc1	-8.5

Now from value to molecule:

Log IC50	SMILES
-8.4	CCc1nc2cc(O)ccc2c(Oc2ccc(/C=C/C(=O)N(C)C)cc2)c1-c1ccccc1
-5.6	O=C(O)/C=C/c1ccc(Oc2c(-c3ccccc3)c(-c3ccccc3)nc3cc(O)ccc23)cc1
-7.7	CCc1nc2cc(O)ccc2c(Oc2ccc(/C=C/C(=O)NC(C)C)cc2)c1-c1ccccc1
-8.4	CCc1nc2cc(O)ccc2c(Oc2ccc(/C=C/C(=O)N3CCCCC3)cc2)c1-c1ccccc1

Molecular target: T2, Estrogen receptor beta (Homo sapiens, UniProt Q92731)
T2 sequence (Q92731 whole entry): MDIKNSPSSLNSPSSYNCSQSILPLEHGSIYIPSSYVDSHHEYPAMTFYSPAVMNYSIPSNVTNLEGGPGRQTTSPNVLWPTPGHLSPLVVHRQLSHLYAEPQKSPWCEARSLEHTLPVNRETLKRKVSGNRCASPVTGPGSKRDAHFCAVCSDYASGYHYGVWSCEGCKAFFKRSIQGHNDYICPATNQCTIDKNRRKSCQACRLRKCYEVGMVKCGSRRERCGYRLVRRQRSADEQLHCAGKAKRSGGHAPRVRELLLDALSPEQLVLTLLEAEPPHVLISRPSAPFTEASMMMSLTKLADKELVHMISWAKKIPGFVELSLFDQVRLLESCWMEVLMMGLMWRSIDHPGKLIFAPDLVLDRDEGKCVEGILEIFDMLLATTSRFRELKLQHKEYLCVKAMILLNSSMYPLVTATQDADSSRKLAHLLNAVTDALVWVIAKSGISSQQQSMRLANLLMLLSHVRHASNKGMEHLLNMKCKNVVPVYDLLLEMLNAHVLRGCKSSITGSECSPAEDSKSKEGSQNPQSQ
Test: Binding affinity for human estrogen receptor beta
Conditions: not given

SMILES	Ki [nM]
CCc1nc2cc(O)ccc2c(Oc2cccc(/C=C/C(=O)O)c2)c1-c1ccccc1	1580

Molecular target: T3, Estrogen receptor (Homo sapiens) (UniProt P03372)
T3 sequence (whole entry): T1 sequence (P03372 whole entry)
Conditions: not given

SMILES	MFI
CCc1nc2cc(O)ccc2c(Oc2ccc(/C=C/C(=O)O)cc2)c1-c1cccc(C(F)(F)F)c1	1590
CCc1nc2cc(O)ccc2c(Oc2ccc(/C=C/C(N)=O)cc2)c1-c1ccccc1	540
CCc1nc2cc(O)ccc2c(Oc2ccc(OCCN(C)C)cc2)c1-c1ccccc1	0

More lines, now with the values ahead:

MFI	SMILES
350	CCc1nc2cc(O)ccc2c(Oc2ccc(/C=C/C(=O)N(C)C)cc2)c1-c1ccccc1
1320	CC/C(=C(\c1ccc(O)cc1)c1ccc(/C=C/C(=O)O)cc1)c1ccccc1
710	CCc1nc2cc(O)ccc2c(Oc2ccc(/C=C/C(=O)NC(C)C)cc2)c1-c1ccccc1
1380	CCc1nc2cc(O)ccc2c(Oc2ccc(/C=C/C(=O)O)cc2)c1-c1ccccc1
390	CCc1nc2cc(O)ccc2c(Oc2ccc(/C=C/C(=O)N3CCCCC3)cc2)c1-c1ccccc1

Molecular target: T2, Estrogen receptor beta
Conditions: not given

SMILES	Ki [nM]
CCc1nc2cc(O)ccc2c(Oc2ccc(/C=C/C(=O)O)cc2)c1-c1cccc(C(F)(F)F)c1	251
CCc1nc2cc(O)ccc2c(Oc2ccc(/C=C/C(N)=O)cc2)c1-c1ccccc1	25.1
CCc1nc2cc(O)ccc2c(Oc2ccc(OCCN(C)C)cc2)c1-c1ccccc1	10

Next, values leading:

Ki [nM]	SMILES
20	CCc1nc2cc(O)ccc2c(Oc2ccc(/C=C/C(=O)N(C)C)cc2)c1-c1ccccc1
631	O=C(O)/C=C/c1ccc(Oc2c(-c3ccccc3)c(-c3ccccc3)nc3cc(O)ccc23)cc1
15.8	CCc1nc2cc(O)ccc2c(Oc2ccc(/C=C/C(=O)NC(C)C)cc2)c1-c1ccccc1
25.1	CCc1nc2cc(O)ccc2c(Oc2ccc(/C=C/C(=O)N3CCCCC3)cc2)c1-c1ccccc1
